Patent publication EP4566597A1, “STATINS USEFUL IN THE TREATMENT OF SPLACHNIC VASCULAR DYSFUNCTIONS” (Hospital Clínic de Barcelona, priority 2023, dated 2025)

Key:
PVECs = assay: qPCR of EndMT markers in PVECs treated in vitro with Simvastatin; type: cell-based, human; details: 5 µM Simvastatin sodium salt, 24 h
Experimental: For portal vein endothelia cell (PVEC) isolation, excess surrounding fat tissue was meticulously removed from the vein using sterile scissors, and any residual blood was washed away with DPBS. Subsequently, the tubular vein was opened to expose the inner part of the vein facing upward. Trypsin EDTA 0,05% (Gibco, #25300054) was then added on the upper surface and incubated for 5 minutes at 37°C. EGM-2 medium was then added abundantly over the tissue and a cell scrapper (TPP-Reactiva, #99002) was used to carefully scrap the surface of the inner wall several times, in order to detach the endothelial cells from the vein wall. The EGM-2 medium with cells in suspension was then centrifuged at 300 g for 5 minutes and pellet resuspended in 2 ml of fresh EGM-2. Cells were then seeded in a well from a 6-well plate pre-coated with human plasma fibronectin at a concentration of 1 µg/cm^2 (Sigma, #F0895), and fresh media changed every other day until confluence. On average, confluence was reached 10 days after isolation.
In order to isolate PVECs from other cell types that were also scrapped during the initial tissue processing, cells were detached, stained with anti-CD31-FITC (BD Bioscience, #555445) and CD144 -BV786 (BD Bioscience, #565672) antibodies and FACS sorted in a FACS Aria II cell sorter (BD Biosciences) according to manufacturer's instructions. PVECs were selected as CD31^+ CD144^+ cells and seeded back to either a 6-well plate, T25 or T75 flasks, depending on the cell amount obtained. Once ECs reached confluency, a third of the cells were collected in RLT buffer (Qiagen) for subsequent RNA isolation (passage 1), a third was used for flow cytometry purity analysis and the final one third was passaged into a new 6-well plate. From this moment onwards, […] portal vein endothelial cells (PVECs) were expanded at a split ratio of 1:5 until senescence. At every passage, a fraction of the cells was cryopreserved for future experiments, while the rest was used for flow cytometry purity check, RLT collection and tube assays. Endothelial phenotype of PVECs was routinely monitored by cell morphology, flow cytometry, immunofluorescence and tube formation capacity.
(§1) PVECs were seeded in 6-well plates in triplicates (for RNA collection) and in 60mm dishes (for protein collection) at a concentration of 6x10^4 cells/ml and grow for 24 h to obtain 70% confluency. PVECs from CT (n=3), CH (n=7) and CH-PVT (n=6) were then treated in vitro with 5 µM Simvastatin sodium salt (Sigma, #567022) for another 24 h and collected in either RLT or RIPA buffer for further analysis by means of quantitative real-time polymerase chain reaction (qPCR) or Western blotting, respectively. Its effect on mesenchymal markers and EndMT promoters, including TFs and all the molecules involved in EndMT initiation or progression previously described, was studied.
Total RNA was isolated by RNeasy Micro and Mini kit (Qiagen) as stated above. First-strand cDNA was synthesized using the High Capacity cDNA Reverse Transcription Kit (Applied, Thermo Fisher, #4368814) according to the manufacturer's instructions. Quantitative real-time PCR (qPCR) was performed using PowerUp™ sybr® Green Master Mix (Applied Biosystems, #A25776) with technical duplicates using an AB1 Prism® 7900 HT Cycler (Applied Biosystems). PCR cycle parameters were as follows: 95 °C for 10' followed by 40 cycles at 95 °C for 15" and 60 °C for 1'. Results were obtained with the Sequence Detection System 3.2 software (Applied Biosystems) and further analyzed by the 2-ΔΔCt method. GAPDH was used as a loading control. Results are shown as fold-change.

phosphor-SMAD2 = assay: Western blot of PVECs treated in vitro with simvastatin; type: cell-based, human; details: FIG. 10
Experimental: as §1
Proteins were extracted with RIPA buffer complemented with Halt Protease & Phosphatase inhibitors (ThermoFisher) and total protein estimated using Bradford's Reagent (Bio-Rad) following manufacturer's instructions. […] Extracted proteins were analyzed by western blot. […] Images were acquired with a LAS-4000 apparatus (Fujifilm, TDI, Alcobendas, Spain) and protein expression was determined by densitometric analysis using the Image Studio Lite software (LI-COR). Results are expressed as relative densitometric values normalized to endogenous control β-actin. […]

[1] = PVECs from CT, CH and CH-PVT, qPCR, FIG. 9
[2] = PVEC from cirrhotic patients with or without PVT, qPCR

`CCC(C)(C)C(=O)O[C@H]1C[C@@H](C)C=C2C=C[C@H](C)[C@H](CC[C@@H]3C[C@@H](O)CC(=O)O3)[C@H]21` [Simvastatin, [(1S,3R,7S,8S,8aR)-8-[2-[(2R,4R)-4-hydroxy-6-oxooxan-2-yl]ethyl]-3,7-dimethyl-1,2,3,7,8,8a-hexahydronaphthalen-1-yl] 2,2-dimethylbutanoate] was tested, and the “endothelial markers expression (Cd31)” value (PVECs; [1]) was “increasing”, the “endothelial markers expression (NOs3)” value (PVECs; [1]) was “increasing” and the “expression of mesenchymal markers (AIFM2)” value (PVECs; [2]) was “reduced”. For the same molecule, the “expression of mesenchymal markers (CDH2)” value (PVECs; [2]) was “reduced”, the “expression of the adhesion molecule VCAM1” value (PVECs; [2]) was “reduced” and the “EndMT occurring in PVEC” value (PVECs; overall finding, FIG. 9) was “can ameliorate”. The “GTPase (Rac2) expression” value (PVECs; qPCR) was “decreasing”, the Serpine1 expression (PVECs; qPCR) was “decreasing” and the “expression of transcription factor Snail1” value (PVECs; qPCR) was “reduced”. For the same molecule, the phosphor-SMAD2 protein levels (phosphor-SMAD2) was “capable of reducing”.
